The source of these data is ChEMBL document CHEMBL1132745, “Diphenylsulfone muscarinic antagonists: piperidine derivatives with high M2 selectivity and improved potency” (Bioorg Med Chem Lett, 2000).

The target of experiment [1] is T1, Muscarinic acetylcholine receptor M5 (Homo sapiens, UniProt P08912).
T1 sequence (P08912 whole entry): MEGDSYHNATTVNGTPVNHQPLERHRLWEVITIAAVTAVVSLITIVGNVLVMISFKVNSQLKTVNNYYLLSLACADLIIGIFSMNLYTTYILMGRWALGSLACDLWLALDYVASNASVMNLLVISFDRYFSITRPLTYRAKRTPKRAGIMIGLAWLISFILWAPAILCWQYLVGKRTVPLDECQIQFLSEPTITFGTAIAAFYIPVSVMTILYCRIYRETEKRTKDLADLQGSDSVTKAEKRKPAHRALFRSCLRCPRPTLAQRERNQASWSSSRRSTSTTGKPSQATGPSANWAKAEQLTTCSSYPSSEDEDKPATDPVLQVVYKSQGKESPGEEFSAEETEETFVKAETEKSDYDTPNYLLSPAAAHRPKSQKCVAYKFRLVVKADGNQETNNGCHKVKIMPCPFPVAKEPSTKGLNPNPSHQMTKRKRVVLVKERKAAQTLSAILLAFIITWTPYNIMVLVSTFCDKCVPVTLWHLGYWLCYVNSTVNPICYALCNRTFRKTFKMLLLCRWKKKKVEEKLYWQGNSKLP
Nature of the experiment: The compound was tested for the binding affinity against Muscarinic acetylcholine receptor M5.

In experiment [2] the target is Muscarinic acetylcholine receptor M3 (Homo sapiens, UniProt P20309). Nature of the experiment: Binding affinity against Muscarinic acetylcholine receptor M3.
The target in experiment [3] is T2, Muscarinic acetylcholine receptor M1 (Homo sapiens, UniProt P11229).
T2 sequence (P11229 whole entry): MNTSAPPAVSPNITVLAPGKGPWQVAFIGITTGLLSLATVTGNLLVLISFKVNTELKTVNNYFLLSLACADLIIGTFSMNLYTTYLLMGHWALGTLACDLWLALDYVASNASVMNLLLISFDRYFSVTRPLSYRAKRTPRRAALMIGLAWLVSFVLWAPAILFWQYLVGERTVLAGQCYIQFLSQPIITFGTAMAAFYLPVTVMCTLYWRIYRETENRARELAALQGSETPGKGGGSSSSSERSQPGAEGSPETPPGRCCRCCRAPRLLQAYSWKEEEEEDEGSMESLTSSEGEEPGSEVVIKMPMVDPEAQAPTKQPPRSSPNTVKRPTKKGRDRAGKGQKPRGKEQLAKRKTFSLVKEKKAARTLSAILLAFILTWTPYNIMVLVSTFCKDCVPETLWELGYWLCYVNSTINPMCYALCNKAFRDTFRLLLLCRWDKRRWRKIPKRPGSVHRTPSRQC
Nature of the experiment: Binding affinity against Muscarinic acetylcholine receptor M1.

Experiment [4] concerns the target T3, Muscarinic acetylcholine receptor M2 (Homo sapiens, UniProt P08172).
T3 sequence (P08172 whole entry): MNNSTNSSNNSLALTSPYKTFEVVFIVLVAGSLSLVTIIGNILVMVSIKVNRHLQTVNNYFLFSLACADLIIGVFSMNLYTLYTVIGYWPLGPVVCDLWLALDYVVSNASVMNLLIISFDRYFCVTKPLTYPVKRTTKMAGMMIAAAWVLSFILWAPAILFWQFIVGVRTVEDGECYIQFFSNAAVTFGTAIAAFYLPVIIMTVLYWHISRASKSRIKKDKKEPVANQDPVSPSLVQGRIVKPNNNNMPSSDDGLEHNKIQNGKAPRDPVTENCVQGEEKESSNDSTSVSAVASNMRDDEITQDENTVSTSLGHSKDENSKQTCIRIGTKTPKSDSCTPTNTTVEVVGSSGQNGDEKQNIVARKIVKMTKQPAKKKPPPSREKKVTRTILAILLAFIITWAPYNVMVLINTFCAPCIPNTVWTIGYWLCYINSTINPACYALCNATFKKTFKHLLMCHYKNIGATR
Nature of the experiment: Binding affinity against Muscarinic acetylcholine receptor M2.

Experiment [5] concerns the target T4, Muscarinic acetylcholine receptor M4 (Homo sapiens, UniProt P08173).
T4 sequence (P08173 whole entry): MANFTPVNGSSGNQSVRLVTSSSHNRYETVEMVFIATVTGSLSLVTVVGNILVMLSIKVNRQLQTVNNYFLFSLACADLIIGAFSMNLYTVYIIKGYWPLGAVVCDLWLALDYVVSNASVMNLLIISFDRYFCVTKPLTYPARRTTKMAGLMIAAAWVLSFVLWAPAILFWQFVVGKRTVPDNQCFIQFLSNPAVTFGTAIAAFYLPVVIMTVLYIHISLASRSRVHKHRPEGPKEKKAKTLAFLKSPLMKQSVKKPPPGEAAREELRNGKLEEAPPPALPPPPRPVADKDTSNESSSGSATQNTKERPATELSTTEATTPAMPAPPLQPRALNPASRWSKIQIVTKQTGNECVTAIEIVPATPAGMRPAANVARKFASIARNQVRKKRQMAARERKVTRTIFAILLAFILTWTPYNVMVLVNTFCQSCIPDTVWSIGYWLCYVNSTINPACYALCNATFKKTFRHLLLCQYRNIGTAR
Nature of the experiment: Binding affinity against Muscarinic acetylcholine receptor M4.

The pKi is the Ki on a negative log10 scale, so that one unit is a factor of ten.

SMILES strings stand for the structures. pKi: −log10 of the molar value.

Sequence of Muscarinic acetylcholine receptor M3 (P20309 whole entry): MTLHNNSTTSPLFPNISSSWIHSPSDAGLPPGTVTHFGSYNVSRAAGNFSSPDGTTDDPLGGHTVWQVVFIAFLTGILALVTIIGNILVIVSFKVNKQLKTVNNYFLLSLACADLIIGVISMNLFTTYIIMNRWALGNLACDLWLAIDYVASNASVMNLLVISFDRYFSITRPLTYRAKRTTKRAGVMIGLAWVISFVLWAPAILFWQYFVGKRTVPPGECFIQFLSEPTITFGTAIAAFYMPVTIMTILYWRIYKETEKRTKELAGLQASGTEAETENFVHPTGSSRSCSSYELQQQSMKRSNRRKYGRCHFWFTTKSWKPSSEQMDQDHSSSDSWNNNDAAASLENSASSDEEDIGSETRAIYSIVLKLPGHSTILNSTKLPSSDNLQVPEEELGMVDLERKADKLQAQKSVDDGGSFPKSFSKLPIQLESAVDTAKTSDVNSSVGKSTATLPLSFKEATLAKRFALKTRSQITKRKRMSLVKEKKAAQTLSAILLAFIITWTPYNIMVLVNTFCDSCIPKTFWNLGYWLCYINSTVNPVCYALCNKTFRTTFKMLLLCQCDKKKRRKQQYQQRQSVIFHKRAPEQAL

On to `COc1ccc([S@@+]([O-])c2ccc(C(C#N)N3CCN(C4CCCCC4)CC3)cc2)cc1` (some centres not stated), for which the pKi was 6.51 in experiment [1]; 7.53 in experiment [2]; 6.95 in experiment [3]; 8.56 in experiment [4]; 7.83 in experiment [5].
As for `COc1ccc([S@@+]([O-])c2ccc(C(C#N)C3CCN(C4CCCCC4)CC3)cc2)cc1` (some centres not stated), the pKi in experiment [2] was 7.43; in experiment [3], 6.95; in experiment [4], 8.12; in experiment [5] it was 7.89.
For the compound `COc1ccc([S@+]([O-])c2ccc(C(C#N)N3CCN(C4CCCCC4)CC3)cc2)cc1` (some centres not stated), the figures for the pKi in experiment [3], in experiment [4] and in experiment [5] were 6.60, 7.76 and 7.74, respectively.
Consider `COc1ccc([S@@+]([O-])c2ccc(C(=O)C3CCN(C4CCCCC4)CC3)cc2)cc1`, for which the pKi in experiment [2] is 7.56; in experiment [3], 6.98; in experiment [4], 8.45; in experiment [5], 7.75.
On the same counts, the results for `C=C(c1ccc([S@@+]([O-])c2ccc(OC)cc2)cc1)C1CCN(C2CCCCC2)CC1` are 9.89, 9.17, 10.52 and 10.05.
In the same order, the values of `COc1ccc([S@+]([O-])c2ccc(C(C#N)C3CCN(C4CCCCC4)CC3)cc2)cc1` (some centres not stated) are 7.23, 6.87, 8.15 and 7.35.
In the same order, the values of `COc1ccc([S@+]([O-])c2ccc(C(=O)C3CCN(C4CCCCC4)CC3)cc2)cc1` are 7.70, 7.16, 7.97 and 7.82.
As to `C=C(c1ccc([S@+]([O-])c2ccc(OC)cc2)cc1)C1CCN(C2CCCCC2)CC1`, the pKi in experiment [2] was 9.42; in experiment [3] it was 8.67; in experiment [4], 10.24; in experiment [5], 9.49.
On the same counts, the results for `COc1ccc([S+]([O-])c2ccc(C(C)N3CCN(C4CCCCC4)CC3)cc2)cc1` (configuration not stated) are 9.01, 8.22, 9.00 and 8.66.
In the case of `COc1ccc(S(=O)(=O)c2ccc(C(C#N)C3CCN(C4CCCCC4)CC3)cc2)cc1` (configuration not stated), the negative-log Ki (pKi) in experiment [3] was 7.79; in experiment [4] it was 8.89.
In the same order, the values of `C=C(c1ccc(Sc2ccc(OC)cc2)cc1)C1CCN(C2CCCCC2)CC1` are 8.36 and 9.43.
As for `COc1ccc([S+]([O-])c2ccc(C(C)C3CCN(C4CCCCC4)CC3)cc2)cc1` (configuration not stated), the pKi in experiment [1] is 8.78; in experiment [2] it was 9.80; in experiment [3] it was 9.28; in experiment [4], 9.85; in experiment [5], 10.15.
As to `C=C(c1ccc(S(=O)(=O)c2ccc(OC)cc2)cc1)C1CCN(C2CCCCC2)CC1`, the pKi was 9.32 in experiment [2], 8.55 in experiment [3], 9.77 in experiment [4] and 9.48 in experiment [5].
In the same order, the values of `COc1ccc(S(=O)(=O)c2ccc(C(=O)C3CCN(C4CCCCC4)CC3)cc2)cc1` are 7.86, 7.51, 8.51 and 8.04.
In the same order, the values of `COc1ccc(S(=O)(=O)c2ccc(C(C#N)N3CCN(C4CCCCC4)CC3)cc2)cc1` (configuration not stated) are 8.17, 7.14, 8.14 and 7.73.
